Test results as given in US12065442B2, “Tropomyosin receptor kinase (TRK) degradation compounds and methods of use” (Cullgen (Shanghai), Inc., priority 2018, dated 2024).

Tested on: KM12 cells
Experiment: Cell viability assay (CellTiter-Glo) in KM12 cells
Format: cell-based
Conditions: Homo sapiens, 72 h; Table 3; KM12 cell viability, CellTiter-Glo, 3 days; read-out: IC50

Question: For O=C1CCC(N2C(=O)c3ccc(N4CCC(N5CCN(c6cccc(-c7cnc8ccc(N9CCC[C@@H]9c9cccc(F)c9)nn78)n6)CC5)CC4)cc3C2=O)C(=O)N1 (stereo partly drawn) [TR-182, 2-(2,6-Dioxopiperidin-3-yl)-5-(4-(4-(6-(6-((R)-2-(3-fluorophenyl)pyrrolidin-1-yl)imidazo[1,2-b]pyridazin-3-yl)pyridin-2-yl)piperazin-1-yl)piperidin-1-yl)isoindoline-1,3-dione], which IC50 is on record?
Answer: Its IC50 is 16 nM.

Question: O=C1CCC(N2C(=O)c3ccc(C#CCN4CCN(c5cccc(-c6cnc7ccc(N8CCC[C@@H]8c8cccc(F)c8)nn67)n5)CC4)cc3C2=O)C(=O)N1 (stereo partly drawn) [TR-183, 2-(2,6-Dioxopiperidin-3-yl)-5-(3-(4-(6-(6-((R)-2-(3-fluorophenyl)pyrrolidin-1-yl)imidazo[1,2-b]pyridazin-3-yl)pyridin-2-yl)piperazin-1-yl)prop-1-yn-1-yl)isoindoline-1,3-dione] was tested. Which IC50 did it give?
Answer: The IC50 was 129 nM.

Question: Which IC50 does the source give for O=C1CCC(N2C(=O)c3ccc(N4CC(N5CCN(c6cccc(-c7cnc8ccc(N9CCC[C@@H]9c9cccc(F)c9)nn78)n6)CC5)C4)cc3C2=O)C(=O)N1 (stereo partly drawn) [TR-184, 2-(2,6-dioxopiperidin-3-yl)-5-(3-(4-(6-(6-((R)-2-(3-fluorophenyl)pyrrolidin-1-yl)imidazo[1,2-b]pyridazin-3-yl)pyridin-2-yl)piperazin-1-yl)azetidin-1-yl)isoindoline-1,3-dione] here?
Answer: Its IC50 is 9.3 nM.

Question: With O=C1CCC(N2Cc3ccc(CCCN4CCN(c5cccc(-c6cnc7ccc(N8CCC[C@@H]8c8cccc(F)c8)nn67)n5)CC4)cc3C2=O)C(=O)N1 (stereo partly drawn) [TR-185, 3-(6-(3-(4-(6-(6-((R)-2-(3-fluorophenyl)pyrrolidin-1-yl)imidazo[1,2-b]pyridazin-3-yl)pyridin-2-yl)piperazin-1-yl)propyl)-1-oxoisoindolin-2-yl)piperidine-2,6-dione] as the compound, how does the IC50 read?
Answer: The IC50 was 17.1 nM.

Question: Which IC50 does the source give for O=C1CCC(N2Cc3cc(CCCN4CCN(c5cccc(-c6cnc7ccc(N8CCC[C@@H]8c8cccc(F)c8)nn67)n5)CC4)ccc3C2=O)C(=O)N1 (stereo partly drawn) [TR-186, 3-(5-(3-(4-(6-(6-((R)-2-(3-fluorophenyl)pyrrolidin-1-yl)imidazo[1,2-b]pyridazin-3-yl)pyridin-2-yl)piperazin-1-yl)propyl)-1-oxoisoindolin-2-yl)piperidine-2,6-dione] here?
Answer: Its IC50 is 5.8 nM.

Question: O=C1CCC(N2Cc3ccc(C#CCN4CCN(c5cccc(-c6cnc7ccc(N8CCC[C@@H]8c8cccc(F)c8)nn67)n5)CC4)cc3C2=O)C(=O)N1 (stereo partly drawn) [TR-187, 3-(6-(3-(4-(6-(6-((R)-2-(3-fluorophenyl)pyrrolidin-1-yl)imidazo[1,2-b]pyridazin-3-yl)pyridin-2-yl)piperazin-1-yl)prop-1-yn-1-yl)-1-oxoisoindolin-2-yl)piperidine-2,6-dione] was tested. Which IC50 did it give?
Answer: The IC50 was 18.6 nM.

Question: With O=C1CCC(N2Cc3cc(C#CCN4CCN(c5cccc(-c6cnc7ccc(N8CCC[C@@H]8c8cccc(F)c8)nn67)n5)CC4)ccc3C2=O)C(=O)N1 (stereo partly drawn) [TR-188, 3-(5-(3-(4-(6-(6-((R)-2-(3-Fluorophenyl)pyrrolidin-1-yl)imidazo[1,2-b]pyridazin-3-yl)pyridin-2-yl)piperazin-1-yl)prop-1-yn-1-yl)-1-oxoisoindolin-2-yl)piperidine-2,6-dione] as the compound, how does the IC50 read?
Answer: The IC50 was 16.8 nM.

Question: O=C1CCC(N2Cc3ccc(NCC(=O)N4CCN(c5cccc(-c6cnc7ccc(N8CCC[C@@H]8c8cccc(F)c8)nn67)n5)CC4)cc3C2=O)C(=O)N1 (stereo partly drawn) [TR-189, 3-(6-((2-(4-(6-(6-((R)-2-(3-fluorophenyl)pyrrolidin-1-yl)imidazo[1,2-b]pyridazin-3-yl)pyridin-2-yl)piperazin-1-yl)-2-oxoethyl)amino)-1-oxoisoindolin-2-yl)piperidine-2,6-dione] was tested. Which IC50 did it give?
Answer: Its IC50 is 2.5 nM.

Question: With O=C1CCC(N2Cc3cc(NCC(=O)N4CCN(c5cccc(-c6cnc7ccc(N8CCC[C@@H]8c8cccc(F)c8)nn67)n5)CC4)ccc3C2=O)C(=O)N1 (stereo partly drawn) [TR-190, 3-(5-((2-(4-(6-(6-((R)-2-(3-fluorophenyl)pyrrolidin-1-yl)imidazo[1,2-b]pyridazin-3-yl)pyridin-2-yl)piperazin-1-yl)-2-oxoethyl)amino)-1-oxoisoindolin-2-yl)piperidine-2,6-dione] as the compound, how does the IC50 read?
Answer: The IC50 was 3.6 nM.
